In the assay the target is IRAK4 kinase (Homo sapiens (Human), UniProt Q9NWZ3). The assay can be described thus: IRAK4 Kinase Inhibition Assay (Cisbio HTRF KinEASE-STK S1 kit). The class given is biochemical. Particulars: IRAK4 kinase protein 10 nM, ATP 200 μM, STK Substrate 1-biotin 1 μM, 37° C. 2 h, read-out: IC50 (nM), IRAK4 kinase inhibitory activity. The procedure: Test Example 1. IRAK4 Kinase Inhibition Assay
In this assay, Cisbio HTRF KinEASE-STK SI kit (62S 1 PEB) was used, in which assay/detection buffer, STK Substrate 1-biotin, Streptavidin-XL665, STK Antibody-Cryptate were contained.
After adding compound/DMSO to a 384-well plate (PerkinElmer 6008280) using Echo 665, 5 μL of 2-fold reaction concentration of IRAK4 kinase protein (final concentration: 10 nM) dissolved with assay buffer [1 volume of 5× kinase buffer+20 mM magnesium chloride (Sigma) solution+1 mM DTT (Alfa Aesar) solution+4 volumes deionized water] was added, followed by sealing the shallow well plate, shaking and then centrifuging at 1000 rpm for 1 min, and incubating at room temperature for 5 min; then 5 μL of 2-fold reaction concentration of a 1:1 mixture of STK Substrate 1-biotin (final concentration: 1 μM) and ATP (Sigma A1852) (final concentration: 200 μM) formulated with assay buffer was added, followed by sealing the shallow well plate, shaking and then centrifuging at 1000 rpm for 1 min, and incubating at 37° C. for 2 h, and then 10 μL of a 1:1 mixture of Streptavidin-XL665 (final concentration: 62.5 nM) and STK-antibody-cryptate dissolved with detection buffer was added, followed by sealing the shallow well plate, shaking and then centrifuging at 1000 rpm for 1 min, and incubating at room temperature for 1 h, and thereafter reading the value at the wavelength of 620 nm/665 nm using a microplate reader. The data were analyzed using Prism 9.3 software, and the IC50 value of IRAK4 kinase inhibition was fitted using a four parameter Logistic equation.

For orientation: IC50 means the concentration needed to halve the response being measured.

Each structure is given as a SMILES string. Counter-ions that a name gives are not always drawn.

IRAK4 kinase, sequence (Q9NWZ3 whole entry): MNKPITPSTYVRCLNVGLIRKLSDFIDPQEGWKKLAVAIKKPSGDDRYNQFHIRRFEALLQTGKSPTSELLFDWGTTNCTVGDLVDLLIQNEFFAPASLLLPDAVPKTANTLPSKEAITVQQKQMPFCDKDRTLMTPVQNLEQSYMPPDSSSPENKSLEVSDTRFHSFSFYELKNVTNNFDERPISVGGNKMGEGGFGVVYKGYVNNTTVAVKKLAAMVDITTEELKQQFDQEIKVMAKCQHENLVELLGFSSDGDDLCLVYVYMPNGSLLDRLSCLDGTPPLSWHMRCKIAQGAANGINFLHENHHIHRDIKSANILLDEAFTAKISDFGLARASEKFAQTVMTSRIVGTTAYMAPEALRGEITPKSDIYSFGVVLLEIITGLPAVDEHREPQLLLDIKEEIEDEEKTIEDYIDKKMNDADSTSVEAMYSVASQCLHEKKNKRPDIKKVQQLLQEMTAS

Take `O=S1(=O)CCN(c2ccn3ncc(-c4cn(-c5cn([C@H]6CC[C@H](CO)CC6)nc5C(F)F)nn4)c3n2)CC1` [Compound 91A, 4-(3-(1-(3-(difluoromethyl)-1-((1r,4r)-4-(methylol)cyclohexyl)-1H-pyrazol-4-yl)-1H-1,2,3-triazol-4-yl)pyrazolo[1,5-a]pyrimidin-5-yl)thiomorpholine 1,1-dioxide]: the IC50 was in the range of 100 to 1000 nM.
As to `CC(C)(O)CCNc1ccn2ncc(-c3cn(-c4cn([C@H]5CC[C@H](CO)CC5)nc4C(F)F)nn3)c2n1` [Compound 92A, 4-((3-(1-(3-(difluoromethyl)-1-((1r,4r)-4-(methylol)cyclohexyl)-1H-pyrazol-4-yl)-1H-1,2,3-triazol-4-yl]pyrazolo[1,5-a]pyrimidin-5-yl)amino)-2-methylbutan-2-ol], the IC50 was below 100 nM.
With `CC1(O)CCN(c2ccn3ncc(-c4cn(-c5cn([C@H]6CC[C@H](CO)CC6)nc5C(F)F)nn4)c3n2)CC1` [Compound 93A, 1-(3-(1-(3-difluoromethyl)-1-((1r,4r)-4-(methylol)cyclohexyl)-1H-pyrazol-4-yl)-1H-1,2,3-triazol-4-ylpyrazolo[1,5-a]pyrimidin-5-yl)-4-methylpiperidin-4-ol], the IC50 is below 100 nM.
The value for `OC[C@H]1CC[C@H](n2cc(-n3cc(-c4cnn5ccc(NCC6CC6)nc45)nn3)c(C(F)F)n2)CC1` [Compound 94A, ((1r,4r)-4-(4-(4-(5-((cyclopropylmethyl)amino)pyrazolo[1,5-a]pyrimidin-3-yl)-1H-1,2,3-triazol-1-yl)-3-(difluoromethyl)-1H-pyrazol-1-yl)cyclohexyl)methanol] was below 100 nM.
To `CN1CCN(c2ccn3ncc(-c4cn(-c5cn([C@H]6CC[C@H](CO)CC6)nc5C(F)F)nn4)c3n2)CC1` [Compound 95A, (1R,4R)-4-(3-difluoromethyl)-4-(4-(5-(4-methylpiperazin-1-yl)pyrazolo[1,5-a]pyrimidin-3-yl)-1H-1,2,3-triazol-1-yl)-1H-pyrazol-1-yl)cyclohexylmethanol formate] belongs 100 to 1000 nM; to `OC[C@H]1CC[C@H](n2cc(-n3cc(-c4cnn5ccc(N6CC(O)C6)nc45)nn3)c(C(F)F)n2)CC1` [Compound 96A, 1-(3-(1-(3-difluoromethyl)-1-((1r,4r)-4-(methylol)cyclohexyl)-1H-pyrazol-4-yl)-1H-1,2,3-triazol-4-ylpyrazolo[1,5-a]pyrimidin-5-yl)azetidin-3-ol], 100 to 1000 nM; to `OC[C@H]1CC[C@H](n2cc(-n3cc(-c4cnn5ccc(N6CCC(O)CC6)nc45)nn3)c(C(F)F)n2)CC1` [Compound 97A], below 100 nM.
The value for `OC[C@H]1CC[C@H](n2cc(-n3cc(-c4cnn5ccc(N6CCCOCC6)nc45)nn3)c(C(F)F)n2)CC1` [Compound 98A] was below 100 nM.
On to `OCC1CCC(n2cc(-n3cc(-c4cnn5ccc(N6CC7CC[C@H](C6)O7)nc45)nn3)c(C(F)F)n2)CC1` (stereo partly shown) [Compound 99A, ((1r,4r)-4-(4-(4-(5-(8-oxa-3-azabicyclo[3.2.1]oct-3-yl)pyrazolo[1,5-a]pyrimidin-3-yl)-1H-1,2,3-triazol-1-yl)-3-(difluoromethyl)-1H-pyrazol 1-yl)cyclohexyl)methanol], for which the IC50 was 100 to 1000 nM.
To `OC[C@H]1CC[C@H](n2cc(-n3cc(-c4cnn5ccc(N6CCCC(O)C6)nc45)nn3)c(C(F)F)n2)CC1` (stereo partly shown) [Compound 100A] belongs below 100 nM; to `OC[C@H]1CC[C@H](n2cc(-n3cc(-c4cnn5ccc(N6CCC(O)C6)nc45)nn3)c(C(F)F)n2)CC1` (stereo partly shown) [Compound 101A], 100 to 1000 nM; to `CN(C)C1CCN(c2ccn3ncc(-c4cn(-c5cn(C6CCC(CO)CC6)nc5C(F)F)nn4)c3n2)CC1` (stereo not shown) [Compound 102A, ((1r, 4r)-4-(3-(difluoromethyl)-4-(4-(5-(4-(dimethylamino)piperidin-1-yl)pyrazolo[1,5-a]pyrimidin-3-yl)-1H-1,2,3-triazol-1-yl)-1H-pyrazol-1-ylcyclohexyl)methanol], 100 to 1000 nM.
As for `N[C@H]1CCCN(c2ccn3ncc(-c4cn(-c5cn(C6CCC(CO)CC6)nc5C(F)F)nn4)c3n2)C1` (stereo partly drawn) [Compound 103A, ((1r, 4r)-4-(4-(4-(5-((S)-3-aminopiperidin-1-yl)pyrazolo[1,5-a]pyrimidin-3-yl)-1H-1,2,3-triazol-1-yl)-3-(difluoromethyl)-1H-pyrazol-1-yl]cyclohexyl) methanol], the IC50 is below 100 nM.
The value for `OC[C@H]1CC[C@H](n2cc(-n3cc(-c4cnn5ccc(N6CCOCC6)nc45)nn3)c(C(F)F)n2)CC1` [Compound 104A, ((1r,4r)-4-(3-(difluoromethyl)-4-(4-(5-morpholinyl-pyrazolo[1,5-a]pyrimidin-3-yl)-1H-1,2,3-triazol-1-yl)-1H-pyrazol-1-yl]cyclohexyl)methanol] was below 100 nM; that for `OCC1CCC(n2cc(-n3cc(-c4cnn5ccc(N6C[C@H]7C[C@@H]6CO7)nc45)nn3)c(C(F)F)n2)CC1` (stereo partly drawn) [Compound 105A, ((1R,4r)-4-(4-(4-(5-((1R,4r)-2-oxa-5-azabicyclo[2.2.1]heptan-5-yl)pyrazolo[1,5-a]pyrimidin-3-yl)-1H-1,2,3-triazol-1-yl)-3-(difluoromethyl)-1H-pyrazol-1-yl)cyclohexyl)methanol] was 100 to 1000 nM.
On to `N[C@@H]1CCCN(c2ccn3ncc(-c4cn(-c5cn(C6CCC(CO)CC6)nc5C(F)F)nn4)c3n2)C1` (stereo partly shown) [Compound 106A], for which the IC50 was below 100 nM.
Regarding `OCC1CCC(n2cc(-n3cc(-c4cnn5ccc(N[C@H]6CCCC[C@H]6O)nc45)nn3)c(C(F)F)n2)CC1` (stereo partly drawn) [Compound 107A, (1R,2S)-2-((3-(1-(3-(difluoromethyl)-1-((1R,4S)-4-(methylol)cyclohexyl)-1H-pyrazol-4-yl)-1H-1,2,3-triazol-4-yl]pyrazolo[1,5-a]pyrimidin-5-yl)amino)cyclohexan-1-ol], the IC50 is below 100 nM.
To `NC1CN(c2ccn3ncc(-c4cn(-c5cn([C@H]6CC[C@H](CO)CC6)nc5C(F)F)nn4)c3n2)CC(F)(F)C1` (stereo partly shown) [Compound 108A] belongs below 100 nM; to `C[C@H]1CN(c2ccn3ncc(-c4cn(-c5cn(C6CCC(CO)CC6)nc5C(F)F)nn4)c3n2)C[C@H](C)O1` (stereo partly shown) [Compound 109A], below 100 nM.
For `OC[C@H]1CC[C@H](n2cc(-n3cc(-c4cnn5ccc(N[C@@H]6CCCC[C@@H]6O)nc45)nn3)c(C(F)F)n2)CC1` [Compound 111A, (1S,2R)-2-((3-(1-(3-(difluoromethyl)-1-((1r,4R)-4-(methylol)cyclohexyl)-1H-pyrazol-4-yl)-1H-1,2,3-triazol-4-yl]pyrazolo[1,5-a]pyrimidin-5-yl)amino)cyclohexan-1-ol], the half-inhibitory concentration (IC50) is below 100 nM.
In the case of `OCC1CCC(n2cc(-n3cc(-c4cnn5ccc(N6CCC[C@H](O)C6)nc45)nn3)c(C(F)F)n2)CC1` (stereo partly drawn) [Compound 112A, (S)-1-(3-(1-(3-(difluoromethyl)-1-((1r,4r)-4-(methylol)cyclohexyl)-1H-pyrazol-4-yl)-1H-1,2,3-triazol-4-yl]pyrazolo[1,5-a]pyrimidin-5-yl)piperidin-3-ol], the IC50 is below 100 nM.
To `OCC1CCC(n2cc(-n3cc(-c4cnn5ccc(N6CCC[C@@H](O)C6)nc45)nn3)c(C(F)F)n2)CC1` (stereo partly drawn) [Compound 113A, (R)-1-(3-(1-(3-(difluoromethyl)-1-((1r,4r)-4-(methylol)cyclohexyl)-1H-pyrazol-4-yl)-1H-1,2,3-triazol-4-yl]pyrazolo[1,5-a]pyrimidin-3-yl) piperidin-3-ol] belongs below 100 nM.

The values are drawn from US20260028337A1, “COMPOUND FOR INHIBITING IRAK4 ACTIVITY AND USE THEREOF” (SHENZHEN ZHONGGE BIOLOGICAL TECHNOLOGY CO., LTD., priority 2022, published 2026).
